What was measured:
[1] = tested on: odor-causing biological growth (mold, mildew) in the machine; test: early odor-control trials in the TROMM laundry washer, before the standardized procedure; conditions: TROMM WM2688WM washer; Example 1: one ounce per load, 2.5 cu ft laundry, warm water
From the text: A TROMM Model # WM2688WM laundry washer made by LG Electronics Inc. was purchased. After a few months the odor problem was discovered. […] Applicant started to investigate why a new, expensive washer had this kind of problem. […] These are organic based materials. They provide a growth medium for mold, mildew and other biological growth. The odor is generated by this biofilm. The biofilm returns between each of the treatments.
Since the primary odor was thought to come from mildew, a well known material, 20 MULE TEAM BORAX® detergent was used as a detergent. The boron contained in the detergent is a toxic material that controls mold and fungus. […] The commercially available detergent contained a small amount of boron along with various other chemicals necessary for laundry cleaning.
One ounce of the borax was added to the machine for each load.
The laundry volume was standardized at a full basket of 2.5 Cu Ft.
All wash cycles were run with warm water.

biofilm = test: standardized test procedure for objectionable odors (whiff test, Pass/Fail) in a High Efficiency laundry washing machine; conditions: one ounce of composition per load, 14 days idle, TROMM WM2688WM HE washer, Tide Liquid HE detergent, 2.5 cu ft cotton laundry
From the text: The residue is a matrix of soap, detergent, cotton or wool fibers, and any other organic matter that was introduced by the dirty laundry. This provides a wide array of substances that can support biological growth. The exact mixture is an uncontrolled variable but it considered to be bounded by the use of one machine in one location. Experimental control also involves a standardized volume of the laundry load and the exclusive use of cotton items in the laundry washed. The detergent portion of the matrix was standardized by using only TIDE® Liquid HE Detergent.
A standardized test procedure was developed for a High Efficiency (HE) laundry washing machine. […]
The test procedure also involved a second growth period after the wash cycle where the damp laundry is allowed to sit idle in the laundry washing machine with the door closed. […] Given the above assumptions, it was reasonable to assume that the performance of the composition would be effectively quantified Personal experience with odor problem:
Experimentation with idle periods ranging from twenty four hours to three weeks verified that the intensity of the odor problem was a function of the biofilm growth in the machine during the idle period of the washing schedule. […] Therefore, it was determined that the criteria for effectiveness would be focused on the first load of the week. […]

Compound	odor control [1]	first load odor control / first load performance (biofilm)
O=C([O-])O.[Na+] [baking soda]	did not work well	
sodium borate pentahydrate [5 mol concentration borax]		did increase the control of first load odors, but it was still erratic

Source: US9157053B1, “Laundry washing machine deodorizer” (priority 2009, dated 2015)
